Series [1] relates to Vaccinia virus (strain Copenhagen). The settings on record: for IC50: read-out: IC50 Vaccinia.
For series [2], the system named is Vero cell culture.

Where only a bound is given, the exact number is not on record here.

Turning to `CC12CC3CC(C1)CC(NC(=O)c1ccc(C(F)(F)F)cc1)(C3)C2` [Compound 37], the “SI (CC50/IC50) Vaccinia” value in series [1] is 8.98/>33. Still for that read-out and setting: with `O=C(NCC12CC3CC(CC(C3)C1)C2)c1ccc(Br)cc1` [Compound 9, N-((Adamantan-1-yl)methyl)-4-bromobenzamide] the figure was 8.3/28. On to “3-Ethyl-N^1-(4-(trifluoromethyl)benzoyl)adamantane-1-carbohydrazide [Compound 18]”, for which the CC50 in series [2] amounted to 47 µM. In series [1], the “SI (CC50/IC50) Vaccinia” value is reported as 12.53/3.75 and the IC50 is 12.5 µM. “N^1-(3-Ethyladamantan-1-yl)-4-(trifluoromethyl)benzohydrazide [Compound 36]” returned a half-maximal cytotoxic concentration (CC50) in series [2] of 2.5 µM. For the same compound, in series [1], the “SI (CC50/IC50) Vaccinia” value is 1.66/1.5 and the IC50 was found to be 1.66 µM. For the compound “(rac)-N^1-(1-(Adamantan-1-yl)ethyl)-4-(trifluoromethyl)benzohydrazide [Compound 32]”, the CC50 in series [2] came out at 14 µM. Further, in series [1], the “SI (CC50/IC50) Vaccinia” value is recorded as 0.515/27 and the IC50 worked out at 0.515 µM.

`O=C(NC1C2CC3CC(C2)CC1C3)c1ccc(Br)cc1` (centres unmarked) [Compound 11, N-(Adamantan-2-yl)-4-bromobenzamide]: the “SI (CC50/IC50) Vaccinia” value in series [1] is given as 3.06/>98.

As for `O=C(NC12CC3CC(CC(C3)C1)C2)c1ccc(C(F)(F)F)cc1` [Compound 5, N-(Adamantan-1-yl)-4-(trifluoromethyl)benzamide], the “times less active than the reference compound tecovirimat” value in series [1] came out at 50.

Regarding `CN(C(=O)c1ccc(C(F)(F)F)cc1)C12CC3CC(CC(C3)C1)C2` [Compound 7, N-(Adamantan-1-yl)-N-methyl-4-(trifluoromethyl)benzamide], the “SI (CC50/IC50) Vaccinia” value in series [1] is reported as 4.85/>61. Consider `CCC12CC3CC(C1)CC(NC(=O)c1ccc(C(F)(F)F)cc1)(C3)C2` [Compound 6, N-(3-Ethylаdamantan-1-yl)-4-(trifluoromethyl)benzamide], for which the “SI (CC50/IC50) Vaccinia” value in series [1] is listed as 4.1/>68.

As for “3,5-Dimethyl-N^1-(4-(trifluoromethyl)benzoyl)adamantane-1-carbohydrazide [Compound 17]”, the CC50 in series [2] is greater than 254 µM. Besides, in series [1], the “SI (CC50/IC50) Vaccinia” value is given as 30.9/>8.2 and the IC50 was 30.9 µM. Turning to “N^1-(Adamantan-1-yl)-4-(trifluoromethyl)benzohydrazide [Compound 35]”, in series [2], the CC50 turned out to be 2.8 µM. In turn, “N^1-(5-Chloroadamantan-2-yl)-4-(trifluoromethyl)benzohydrazide [Compound 28]” showed a CC50 in series [2] of roughly 215 µM. In series [1], the “SI (CC50/IC50) Vaccinia” value is 3.52/61 and the IC50 amounted to 3.52 µM. For the compound `O=C(NNC(=O)c1ccc(C(F)(F)F)cc1)NC12CC3CC(CC(C3)C1)C2` [Compound 20, N^1-(Adamantan-1-yl)-2-(4-(trifluoromethyl)benzoyl)hydrazine-1-carboxamide], the “SI (CC50/IC50) Vaccinia” value in series [1] is recorded as 36.26/2.6. `O=C(NNC(=O)C12CC3CC(CC(C3)C1)C2)c1ccc(C(F)(F)F)cc1` [Compound 16, N^1-(4-(Trifluoromethyl)benzoyl)adamantane-1-carbohydrazide] showed a CC50 in series [2] greater than 273 µM. In series [1], the “SI (CC50/IC50) Vaccinia” value is reported as 1.07/>255. For `C/C(=N\NC(=O)c1ccc(C(F)(F)F)cc1)C12CC3CC(CC(C3)C1)C2` [Compound 31, N^1-(1-(Adamantan-1-yl)ethylidene)-4-(trifluoromethyl)benzohydrazide], in series [1], the “SI (CC50/IC50) Vaccinia” value is reported as 10.55/>26. For “N^1-(Adamantan-2-yl)-4-(trifluoromethyl)benzohydrazide [Compound 27]”, the CC50 in series [2] was greater than 296 µM. Besides, in series [1], the “SI (CC50/IC50) Vaccinia” value was 2.8/>103 and the IC50 turned out to be 2.8 µM.

The values above are taken from article PMC9533879 (European Journal of Medicinal Chemistry, 2021).
